Experimental data taken from patent publication US7423153B2, “Crystalline forms of gatifloxacin” (Teva Pharmaceutical Industries Ltd., priority 2002, dated 2008).

How the values were obtained:
[1] = Interconversion of crystalline forms by thermal treatment (XRD before and after heating); type: physicochemical
Method: (§1) X-ray reflections reported herein were determined by the powder diffraction technique (PXRD). X-ray powder diffraction analysis was performed using a Scintag powder diffractometer with variable goniometer, a Cu source, and a solid state detector. A standard round aluminum sample holder with zero background quartz plate was used. Samples were scanned from 2° to 40° 2θ at 3° per minute. Reflections are reported as peak maxima in the Intensity vs. 2θ plots, and are subject to the normal experimental error (uncertainty) of ±0.2°. Wet samples were promptly analyzed “as is,” i.e., without drying or grinding prior to the analysis.
Approximately 200 mg of several of the novel crystalline forms of the present invention, prepared as described in the foregoing examples, and several of the prior-art crystalline forms were subjected to various thermal treatments. The treatments and the results are described in Table II below
200 mg of gatifloxacin form E1 were heated to 100° C. for 1 hour. The XRD of the resulting sample was that of the omega form.

[2] = as reported in U.S. Pat. No. 5,880,283; cited from earlier work
[3] = Exposure to 80% relative humidity for 1 week (XRD, TGA, KF); type: physicochemical; settings: for crystal structure of resulting sample (XRD): 80% relative humidity for 1 week
Method: as §1
Thermogravimetric analysis (TGA) was performed using a Mettler TG50 thermobalance. Samples of 7 to 15 milligrams were analyzed at a heating rate of 10° C. per minute in the temperature range between about 25° C. and about 200° C.
The water content (wt-% water) of crystalline forms of gatifloxacin reported herein was determined by the Karl-Fisher method. Water content of solutions was likewise determined by the Karl-Fisher method.
200 mg of gatifloxacin form J were put in 80% relative humidity for 1 week. The resulting sample was analyzed by XRD, TGA and KF.
200 mg of gatifloxacin omega form were put in 80% relative humidity for 1 week, and then analyzed by XRD and by TGA.

[4] = Stability of E1 dihydrate against transformation to sesquihydrate on storage (PXRD); type: physicochemical
Method: A suitable method to determine the presence of gatifloxacin sesquihydrate in gatifloxacin form E1 is x-ray powder diffraction. Determination of presence of sesquihydrate in form E1 is feasible in the region 7° to 9° 2θ, where a peak of sesquihydrate appears at about 7.8° 2θ.
Moreover, the dihydrate of the present invention is stable against transformation to the sesquihydrate when exposed at ambient temperature to 60% relative humidity for one week.
The E1 dihydrate of the present invention is stable against transformation to sesquihydrate when stored at 30° C. and 60% relative humidity for 3 months.

[5] = among forms of U.S. Pat. No. 6,413,969, cited from earlier work
[6] = Stability of E1 in formulations; type: physicochemical; settings: in formulations at 30° C.
Description: The pharmaceutical composition can be in the form of a solid oral dosage form (e.g., compressed tablets or capsules), or it can be in the form of a liquid oral dosage form (e.g., a solution or oral suspension).

[7] = after 80% relative humidity for 1 week

COc1c(N2CCNC(C)C2)c(F)cc2c(=O)c(C(=O)O)cn(C3CC3)c12 (stereo not shown) [sesquihydrate, gatifloxacin]
form Obtained after heating (XRD) ([1]; 120° C., 1 h): T2RP + omega | hygroscopicity [2]: less hygroscopic | stability in manufacturing [2]: more stable in manufacturing

COc1c(N2CCNC(C)C2)c(F)cc2c(=O)c(C(=O)O)cn(C3CC3)c12 (stereo not shown) [omega form, gatifloxacin]
crystal structure of resulting sample (XRD) [3]: sesquihydrate | LOD of resulting sample (TGA) [3, 7]: 7.7%

COc1c(N2CCNC(C)C2)c(F)cc2c(=O)c(C(=O)O)cn(C3CC3)c12 (stereo not shown) [hemihydrate, gatifloxacin]
form Obtained after heating (XRD) ([1]; 120° C., 1 h): T2RP | hygroscopicity [2]: hygroscopic

COc1c(N2CCNC(C)C2)c(F)cc2c(=O)c(C(=O)O)cn(C3CC3)c12 (stereo not shown) [T1RP, gatifloxacin]
form Obtained after heating (XRD) ([1]; 120° C., 1 h): Hemihydrate

COc1c(N2CCNC(C)C2)c(F)cc2c(=O)c(C(=O)O)cn(C3CC3)c12 (stereo not shown) [E1 dihydrate, gatifloxacin]
stability against transformation to the sesquihydrate ([4]; ambient temperature, 60% relative humidity, one week, PXRD): stable | stability against transformation to sesquihydrate ([4]; stored at 30° C. and 60% relative humidity for 3 months): stable

COc1c(N2CCNC(C)C2)c(F)cc2c(=O)c(C(=O)O)cn(C3CC3)c12 (stereo not shown) [pentahydrate, gatifloxacin]
thermodynamic stability [5]: most thermodynamically stable form | aqueous solubility ([5]; room temperature): lowest aqueous solubility

COc1c(N2CCNC(C)C2)c(F)cc2c(=O)c(C(=O)O)cn(C3CC3)c12 (stereo not shown) [form J, gatifloxacin]
form Obtained after heating (XRD) ([1]; 120° C., 1 h): omega | crystal structure of resulting sample (XRD) [3]: sesquihydrate | KF water content of resulting sample [3, 7]: 6.6% | LOD of resulting sample (TGA) [3, 7]: 7.8%

COc1c(N2CCNC(C)C2)c(F)cc2c(=O)c(C(=O)O)cn(C3CC3)c12 (stereo not shown) [form E1, gatifloxacin]
time stable in formulations [6]: at least 3 months | form Obtained after heating (XRD) ([1]; 100° C. for 1 hour): omega form

COc1c(N2CCNC(C)C2)c(F)cc2c(=O)c(C(=O)O)cn(C3CC3)c12 (stereo not shown) [form G, gatifloxacin]
form Obtained after heating (XRD) ([1]; 120° C., 1 h): Omega^1.
